Experimental data as given in patent publication US4352803A, “Novel naphthyridine derivatives, intermediates thereof, processes for preparation thereof, and use thereof” (Dainippon Pharmaceutical Co., Ltd., priority 1978, dated 1982).
≈ marks a conversion by molar mass, not a printed value. Where two headings read alike, the source gives them in different places.

Legend:
[1] = system: Streptococcus pyogenes 65A; assay: In vitro antibacterial activity (MIC), Streptococcus pyogenes 65A; assay type: cell-based; conditions: read-out: minimum inhibitory concentration (MIC)
Description: (§1) (MIC) (μg/ml) Method; Chemotherapy, 22(6), 1126 (1974)

[2] = system: Pseudomonas aeruginosa Tsuchijima; assay: In vitro antibacterial activity (MIC), Pseudomonas aeruginosa Tsuchijima; assay type: cell-based; conditions: read-out: minimum inhibitory concentration (MIC)
Description: as §1

[3] = system: Staphylococcus aureus No. 50774; assay: in vivo efficacy against systemic infection in mice, Staphylococcus aureus No. 50774; conditions: NO.50774, in Mus musculus, po, 336 h
Description: Male mice (ddY) weighing about 20 g
Intravenous infection with (about
5 × 10^8 cells/mouse) of a bacterial
(§2) Twice, about 5 minutes and 6 hours after infection.

[4] = system: Staphylococcus aureus No. 50774; assay: In vitro antibacterial activity (MIC), Staphylococcus aureus No. 50774; assay type: cell-based
Description: as §1

Escherichia coli P-5101 [5] = assay: In vitro antibacterial activity (MIC), Escherichia coli P-5101; assay type: cell-based; conditions: Escherichia coli, P5101, read-out: minimum inhibitory concentration (MIC)
Description: as §1

[6] = system: Shigella flexneri 4a P-330; assay: In vitro antibacterial activity (MIC), Shigella flexneri 4a P-330; assay type: cell-based; conditions: 4AP330, read-out: minimum inhibitory concentration (MIC)
Description: as §1

Escherichia coli P-5101 [7] = assay: in vivo efficacy against systemic infection in mice, Escherichia coli P-5101; conditions: P5101, in Mus musculus, po, 168 h
Description: Male mice (ddY) weighing about 20 g
Intraperitoneal infection with (about
9 × 10^6 cells/mouse) of a bacterial
(§3) suspension in trypto-soy broth with 4% mucin.
as §2

Escherichia coli P-140a = assay: In vitro antibacterial activity (MIC), Escherichia coli P-140a; assay type: cell-based; conditions: read-out: minimum inhibitory concentration (MIC)
Description: as §1

[8] = system: Salmonella enteritidis No. 1891; assay: In vitro antibacterial activity (MIC), Salmonella enteritidis No. 1891; assay type: cell-based; conditions: Salmonella enterica, read-out: minimum inhibitory concentration (MIC)
Description: as §1

[9] = system: Streptococcus faecalis P-2473; assay: In vitro antibacterial activity (MIC), Streptococcus faecalis P-2473; assay type: cell-based; conditions: Enterococcus faecalis
Description: as §1

[10] = system: Salmonella typhimurium 8-9; assay: In vitro antibacterial activity (MIC), Salmonella typhimurium 8-9; assay type: cell-based; conditions: Salmonella enterica, read-out: minimum inhibitory concentration (MIC)
Description: as §1

[11] = system: Enterobacter cloacae P-2540; assay: In vitro antibacterial activity (MIC), Enterobacter cloacae P-2540; assay type: cell-based
Description: as §1

Proteus morganii Kono = assay: In vitro antibacterial activity (MIC), Proteus morganii Kono; assay type: cell-based; conditions: Morganella morganii, read-out: minimum inhibitory concentration (MIC)
Description: as §1

[12] = system: Corynebacterium pyogenes C-21; assay: In vitro antibacterial activity (MIC), Corynebacterium pyogenes C-21; assay type: cell-based; conditions: Rhodococcus (subgen. Prescottella) equi
Description: as §1

[13] = system: Serratia marcescens IFC 3736; assay: In vitro antibacterial activity (MIC), Serratia marcescens IFC 3736; assay type: cell-based
Description: as §1

[14] = system: Klebsiella pneumoniae No. 13; assay: In vitro antibacterial activity (MIC), Klebsiella pneumoniae No. 13; assay type: cell-based
Description: as §1

[15] = system: Escherichia coli NIHJ JC-2; assay: In vitro antibacterial activity (MIC), Escherichia coli NIHJ JC-2; assay type: cell-based
Description: as §1

[16] = system: Pseudomonas aeruginosa No. 12; assay: in vivo efficacy against systemic infection in mice, Pseudomonas aeruginosa No. 12; conditions: NO.12, in Mus musculus, po, 168 h
Description: Male mice (ddY) weighing about 20 g
(3) Pseudomonas aeruginosa No. 12;
(about 5 × 10^3 cells/mouse) of a bacterial
as §3, §2
The numerals in the table show ED50 (mg/kg). ED50 values were

[17] = system: Pseudomonas aeruginosa No. 12; assay: In vitro antibacterial activity (MIC), Pseudomonas aeruginosa No. 12; assay type: cell-based
Description: as §1

[18] = system: Staphylococcus aureus 209P JC-1; assay: In vitro antibacterial activity (MIC), Staphylococcus aureus 209P JC-1; assay type: cell-based; conditions: read-out: minimum inhibitory concentration (MIC)
Description: as §1

Shigella flexneri 2a = assay: In vitro antibacterial activity (MIC), Shigella flexneri 2a; assay type: cell-based; conditions: read-out: minimum inhibitory concentration (MIC)
Description: as §1

Proteus mirabilis P-2381 = assay: In vitro antibacterial activity (MIC), Proteus mirabilis P-2381; assay type: cell-based
Description: as §1

in vivo = conditions: mouse, in vivo, po
Description: The number of dead mice was counted after 7 days, and the value of median lethal dose (LD50, mg/kg) was calculated in accordance with the Behrens-Kaerber method.

[19] = system: Gram-positive and Gram-negative bacteria; assay: in vivo therapeutic efficacy against systemic infections in mice (overall); set-up: species or system mice (ddY); conditions: Gram-negative, particularly Pseudomonas aeruginosa
[20] = Pseudomonas aeruginosa Tsuchijima
[21] = Staphylococcus aureus, NO.50774, read-out: minimum inhibitory concentration (MIC)
[22] = P2473, read-out: minimum inhibitory concentration (MIC)
[23] = Enterobacter cloacae, P2540, read-out: minimum inhibitory concentration (MIC)
[24] = C21, Corynebacterium pyogenes C-21, read-out: minimum inhibitory concentration (MIC)
[25] = Serratia marcescens, IFC3736, read-out: minimum inhibitory concentration (MIC)
[26] = Klebsiella pneumoniae No. 13, read-out: minimum inhibitory concentration (MIC)
[27] = Escherichia coli, NIHJJC2, read-out: minimum inhibitory concentration (MIC)
[28] = Pseudomonas aeruginosa No. 12, read-out: minimum inhibitory concentration (MIC)
[29] = Staphylococcus aureus 209P JC-1
[30] = Proteus mirabilis, P2381, read-out: minimum inhibitory concentration (MIC)
[31] = Klebsiella pneumoniae, NO.13, read-out: minimum inhibitory concentration (MIC)
[32] = Pseudomonas aeruginosa, NO.12, read-out: minimum inhibitory concentration (MIC)
[33] = Staphylococcus aureus No. 50774, read-out: minimum inhibitory concentration (MIC)
[34] = Salmonella enteritidis No. 1891
[35] = P2473, Streptococcus faecalis P-2473, read-out: minimum inhibitory concentration (MIC)
[36] = P2540, Enterobacter cloacae P-2540, read-out: minimum inhibitory concentration (MIC)

SMILES	MIC ([1]; Streptococcus pyogenes, 65A) [µg/mL]	MIC [2, 20] [µg/mL]	ED50 [3] [mg/kg]	MIC [4, 21] [µg/mL]	MIC (Escherichia coli P-5101 [5]) [µg/mL]	MIC [6] [µg/mL]	ED50 (Escherichia coli P-5101 [7]) [mg/kg]	MIC (Escherichia coli P-140a; Escherichia coli) [µg/mL]	MIC ([8]; ENTERITIDIS) [µg/mL]	MIC [9, 22] [µg/mL]	MIC ([10]; TYPHIMURIUM) [µg/mL]	MIC [11, 23] [µg/mL]	MIC (Proteus morganii Kono) [µg/mL]	MIC [12, 24] [µg/mL]	MIC [13, 25] [µg/mL]	MIC [15, 27] [µg/mL]	ED50 [16] [mg/kg]	MIC [18, 29] [µg/mL]	MIC (Shigella flexneri 2a) [µg/mL]	MIC (Proteus mirabilis P-2381; [30]) [µg/mL]	other results
CCn1cc(C(=O)O)c(=O)c2cnc(N3CCNCC3)nc21 [F, 8-Ethyl-5,8-dihydro-5-oxo-2-(1-piperazinyl)pyrido[2,3-d] pyrimidine-6-carboxylic acid]	200 (≈ 659 µM)	12.5 (≈ 41.2 µM)	215	25 (≈ 82.4 µM)	1.56 (≈ 5.14 µM)	1.56 (≈ 5.14 µM)	21.2	1.56 (≈ 5.14 µM)	1.56 (≈ 5.14 µM)	200 (≈ 659 µM)	1.56 (≈ 5.14 µM)	1.56 (≈ 5.14 µM)	3.13 (≈ 10.3 µM)	25 (≈ 82.4 µM)	3.13 (≈ 10.3 µM)	1.56 (≈ 5.14 µM)	99.5	12.5 (≈ 41.2 µM)	3.13 (≈ 10.3 µM)	3.13 (≈ 10.3 µM)	MIC [14, 26]: 6.25 µg/mL (≈ 20.6 µM); MIC [17, 28]: 25 µg/mL (≈ 82.4 µM)
CC1=C(C(=O)O)N2C(=O)[C@@H](NC(=O)[C@H](N)c3ccccc3)[C@H]2SC1 [J, 7-(D-α-Aminophenylacetamido)desacetoxycephalosporanic acid]	0.78 (≈ 2.25 µM)	–	12.1	1.56 (≈ 4.49 µM)	12.5 (≈ 36 µM)	200 (≈ 576 µM)	22.6	> 200	3.13 (≈ 9.01 µM)	200 (≈ 576 µM)	6.25 (≈ 18 µM)	> 200	> 200	–	> 200	12.5 (≈ 36 µM)	> 400	–	12.5 (≈ 36 µM)	12.5 (≈ 36 µM)	MIC ([2]; Pseudomonas aeruginosa): > 200 µg/mL; MIC ([12]; C21, read-out: minimum inhibitory concentration (MIC)): 1.56 µg/mL (≈ 4.49 µM); MIC [14, 31]: 6.25 µg/mL (≈ 18 µM); MIC [17, 32]: > 200 µg/mL; MIC ([18]; Staphylococcus aureus, 209P): 1.56 µg/mL (≈ 4.49 µM)
CCn1cc(C(=O)O)c(=O)c2cc(Cl)c(N3CCNCC3)nc21.Cl [Compound 3, 6-Chloro-1-ethyl-1,4-dihydro-4-oxo-7-(1-piperazinyl)-1,8-naphthyridine-3-carboxylic acid hydrochloride]	–	6.25	~90	–	0.39	1.56	6.5	0.39	–	–	–	–	1.56	6.25	1.56	–	58.6	3.13	0.78	–	MIC ([1]; Streptococcus pyogenes 65A): 12.5 µg/mL; MIC [4, 33]: 6.25 µg/mL; MIC [8, 34]: 0.39 µg/mL; MIC [9, 35]: 25 µg/mL; MIC ([10]; Salmonella typhimurium 8-9): 0.39 µg/mL; MIC [11, 36]: 0.78 µg/mL; MIC [14, 31]: 1.56 µg/mL; MIC ([15]; NIHJJC2, Escherichia coli NIHJ JC-2, read-out: minimum inhibitory concentration (MIC)): 0.78 µg/mL; LD50 at 168 h (in vivo): > 2000 mg/kg; MIC [17, 28]: 6.25 µg/mL; MIC (Proteus mirabilis P-2381; P2381, Proteus mirabilis P-2381, read-out: minimum inhibitory concentration (MIC)): 3.13 µg/mL
CC1(C)S[C@@H]2[C@H](NC(=O)[C@H](N)c3ccccc3)C(=O)N2[C@H]1C(=O)O [H, D-α-Aminobenzylpenicillin]	–	–	2.2	–	6.25 (≈ 17.9 µM)	6.25 (≈ 17.9 µM)	43.5	–	–	–	–	–	–	1.56 (≈ 4.46 µM)	–	6.25 (≈ 17.9 µM)	> 400	0.05 (≈ 0.143 µM)	3.13 (≈ 8.96 µM)	3.13 (≈ 8.96 µM)	MIC ([1]; Streptococcus pyogenes 65A): 0.025 µg/mL (≈ 0.0715 µM); MIC ([2]; Pseudomonas aeruginosa): > 200 µg/mL; therapeutic effects in vivo against Gram-negative bacteria, relative to compounds 1, 1' and 2 [19]: clearly inferior; MIC [4, 33]: 0.1 µg/mL (≈ 0.286 µM); MIC (Escherichia coli P-140a; P140A, Escherichia coli P-140a): 200 µg/mL (≈ 572 µM); MIC [8, 34]: 0.2 µg/mL (≈ 0.572 µM); MIC [9, 35]: 1.56 µg/mL (≈ 4.46 µM); MIC ([10]; Salmonella typhimurium 8-9): 0.39 µg/mL (≈ 1.12 µM); MIC [11, 36]: > 200 µg/mL; MIC (Proteus morganii Kono; Proteus morganii Kono): 100 µg/mL (≈ 286 µM); MIC ([13]; IFC3736, Serratia marcescens IFC 3736, read-out: minimum inhibitory concentration (MIC)): 25 µg/mL (≈ 71.5 µM); MIC [14, 26]: 100 µg/mL (≈ 286 µM); LD50 at 168 h (in vivo): > 5000 mg/kg; MIC [17, 32]: > 200 µg/mL
